Test results taken from patent US20050197366A1, “Antimicrobial composition containing N-(n-butyl)-1,2-benzisothiazolin-3-one” (priority 2004, published 2005).
Values joined by “and” are separate entries in the source; they are usually repeats but may differ in a detail not shown here. Identical values can stand only once. Like-named read-outs stand apart in the source and are kept apart here.

How the values were obtained:
Type in all cases: cell-based
[1] = system: Pseudomonas aeruginosa (ATCC#15442); test: Microtiter plate synergy test (MIC, Kull synergy index), bacteria, Trypticase Soy Broth; conditions: for Alone ppm (MIC of compound acting alone): Ps. aeruginosa, ppm active ingredient; for MIC: Pseudomonas aeruginosa, read-out: Alone ppm (MIC of compound acting alone)
Excerpt: (§1) One measure of synergism is the industrially accepted method described by Kull, F. C.; Eisman, P. C.; Sylwestrowicz, H. D. and Mayer, R. L., in Applied Microbiology 9:538-541 (1961), using the ratio determined by the formula: Qa/QA+Qb/QB=Synergy Index (“SI”) wherein: • QA=concentration of compound A (first component) in ppm, acting alone, which produced an end point (MIC of Compound A). • Qa=concentration of compound A in ppm, in the mixture, which produced an end point. • QB=concentration of compound B (second component) in ppm, acting alone, which produced an end point (MIC of Compound B). • Qb=concentration of compound B in ppm, in the mixture, which produced an end point.
(§2) When the sum of Qa/QA and Qb/QB is greater than one, antagonism is indicated. […] The lower the SI, the greater the synergy shown by that particular mixture. The minimum inhibitory concentration (MIC) of an antimicrobial compound is the lowest concentration tested under a specific set of conditions that prevents the growth of added microorganisms.
(§3) Synergy tests were conducted using standard microtiter plate assays (12 columns, 1-12×8 rows, A-H) with media designed for optimal growth of the test microorganism. Full-strength nutrient medium, Trypticase Soy Broth, TSB, for bacteria, or Potato Dextrose Broth, PDB, for fungi, was used for testing. Growth medium (160 μL) was dispensed into columns 2-6 and 8-12 of the plate. A total of 40 plates were made with each growth medium. Stock solutions of N-(n-butyl)-1,2-benzisothiazolin-3-one were made from DENSIL DG 20 (20% active ingredient (AI), n-BBIT, in propylene glycol, obtained from Avecia Inc.) at the following concentrations based on total product weight: 5000 ppm (0.2 g DENSIL DG 20 in 40 g growth medium), 4000 ppm, 3500 ppm, 3000 ppm, 2500 ppm, 2000 ppm, 1500 ppm, 1000 ppm and 900 ppm. Isothiazolone stock solutions were made as follows. KATHON LX (1.97% active, 3:1 CMI/MI mixture): active ingredient concentrations at 144 ppm, 36 ppm, 10 ppm, 5 ppm and 1 ppm. ROZONE 2000 (20% active, DCOIT): active ingredient concentrations at 144 ppm, 36 ppm, 10 ppm, 5 ppm and 1 ppm. ROCIMA 550 (9.5% active, MI): active ingredient concentrations at 4800 ppm, 2400 ppm, 900 ppm, 360 ppm and 180 ppm. DENSIL DG 20 stock solution was dispensed in each well of columns 1 and 7 of a microtiter plate, as described below:
(§4) 5000 ppm of stock solution was tested against Ps. aeruginosa in 1A, 7A. The 900 ppm stock was not tested against this organism. A 40 μL aliquot was transferred from each well in column 1 to column 2 and serially diluted to column 5; the aliquots from column 5 was discarded. Column 6 was the control. The same procedure was repeated from column 7 to column 11, and the aliquots from column 11 discarded. At the end of this procedure, each well should contain 160 μL of solution.
(§5) The isothiazolone stock solutions were added to various columns so that each well contained the desired concentration of the isothiazolone and the DENSIL DG20. The DENSIL DG20 alone as well as the isothiazolone alone were included as controls. An example of the combination of 11 ppm KATHON LX 1.5% (on an active ingredient basis) with DENSIL DG20 is shown below:
(§6) DENSIL DG20 alone (columns 1-5); untreated control (column 6); combination evaluations (columns 7-11); KATHON LX 1.5% control (column 12). Inoculum (10 μL) was dispensed into each well from column 1-12. […] The MIC of each biocide was determined from the plates, and then SI was determined.
(§7) The following Tables summarize data for combinations of n-BBIT with other isothiazolones (ITA), along with their synergy index (SI) and the ratio of n-BBIT:ITA. All amounts of n-BBIT and ITA are reported as ppm of active ingredient. Results for testing against various organisms are grouped with results against fungi (F) reported together, and then results against bacteria (B).
(§8) Typical contact time for bacteria is 24-48 hours and 3-7 days for fungi. […]

[2] = system: Klebsiella pneumoniae (ATCC#13583); test: as above; conditions: for MIC: Klebsiella pneumoniae, read-out: Alone ppm (MIC of compound acting alone)
Excerpt: as §1, §2, §3, §4, §5, §6, §7, §8

[3] = system: Staphylococcus aureus (ATCC#6538); test: as above; conditions: S. aureus, ppm active ingredient; for MIC: Staphylococcus aureus, ATCC6538, read-out: Alone ppm (MIC of compound acting alone)
Excerpt: as §1, §2, §3, §4, §5, §6, §7, §8

[4] = system: Candida albicans (ATCC#10231); test: Microtiter plate synergy test (MIC, Kull synergy index), fungi, Potato Dextrose Broth
Excerpt: as §1, §2, §3, §4, §5
(§9) DENSIL DG20 alone (columns 1-5); untreated control (column 6); combination evaluations (columns 7-11); KATHON LX 1.5% control (column 12). Inoculum (10 μL) was dispensed into each well from column 1-12. The plates were incubated (bacterial plates at 48 hrs., 30° C.; fungal plates at 7 days, 25° C.). The MIC of each biocide was determined from the plates, and then SI was determined.
as §7, with “(B). […]” for “(B).”

[5] = system: Gliocladium viridie (Tricoderma viridie)(isolate); test: as above; conditions: for Alone ppm (MIC of compound acting alone): G. viridie, ppm active ingredient; for MIC: read-out: Alone ppm (MIC of compound acting alone)
Excerpt: as §1, §2, §3, §4, §5, §9
as §7, with “(B). […]” for “(B).”

[6] = system: Aspergillus niger (ATCC#16404); test: as above; conditions: for Alone ppm (MIC of compound acting alone): A. niger, ppm active ingredient
Excerpt: as §1, §2, §3, §4, §5, §6, §7, §8

[7] = system: Fusarium moniliforme (ATCC#58929); test: as above; conditions: for MIC: Fusarium verticillioides, read-out: Alone ppm (MIC of compound acting alone)
Excerpt: as §1, §2, §3, §4, §5, §6, §7, §8

[8] = system: Proteus mirabilis (ATCC#unknown); test: Microtiter plate synergy test (MIC, Kull synergy index), bacteria, Trypticase Soy Broth; conditions: P. mirabilis, contact time 48 hr, ppm active ingredient
Excerpt: as §1, §2, §3
(§10) 5000 ppm of stock solution was tested against Ps. aeruginosa in 1A, 7A. The 900 ppm stock was not tested against this organism. […]
(§11) DENSIL DG20 alone (columns 1-5); untreated control (column 6); combination evaluations (columns 7-11); KATHON LX 1.5% control (column 12). […] The MIC of each biocide was determined from the plates, and then SI was determined. […]

[9] = system: Escherichia coli (ATCC#8739); test: as above; conditions: E. coli, ppm active ingredient
Excerpt: as §1, §2, §3, §10, §11

In the case of `CCCCn1sc2ccccc2c1=O` [n-BBIT, N-(n-butyl)-1,2-benzisothiazolin-3-one], the “Alone ppm (MIC of compound acting alone)” value ([1]; contact time 24 hr) is reported as 711 ppm, the “Alone ppm (MIC of compound acting alone)” value ([1]; contact time 48 hr) is reported as 711 ppm and the “Alone ppm (MIC of compound acting alone)” value ([2]; K. pneumoniae, contact time 24 hr, ppm active ingredient) is reported as 267 ppm. For the same molecule, the “Alone ppm (MIC of compound acting alone)” value ([2]; K. pneumoniae, contact time 48 hr, ppm active ingredient) was 267 ppm, the “Alone ppm (MIC of compound acting alone)” value ([3]; contact time 24 hr) was 36 ppm and the “Alone ppm (MIC of compound acting alone)” value ([3]; contact time 48 hr) was 53 ppm. The “Alone ppm (MIC of compound acting alone)” value ([4]; C. albicans, contact time 7 days, ppm active ingredient) was 124 ppm, the “Alone ppm (MIC of compound acting alone)” value ([5]; contact time 3 days) was 711 ppm and the “Alone ppm (MIC of compound acting alone)” value ([5]; contact time 7 days) was >711 ppm. For the same molecule, the “Alone ppm (MIC of compound acting alone)” value ([6]; contact time 3 days) was 28 ppm, the “Alone ppm (MIC of compound acting alone)” value ([6]; contact time 7 days) was 53 ppm and the “Alone ppm (MIC of compound acting alone)” value ([7]; F. moniliforme, contact time 3 days, ppm active ingredient) was 267 ppm and 444 ppm. The “Alone ppm (MIC of compound acting alone)” value ([7]; F. moniliforme, contact time 7 days, ppm active ingredient) was 533 ppm and 356 ppm and 267 ppm, the “Alone ppm (MIC of compound acting alone)” value [8] was 18 ppm and the “Alone ppm (MIC of compound acting alone)” value ([9]; contact time 24 hr) was 356 ppm. For the same molecule, the “Alone ppm (MIC of compound acting alone)” value ([9]; contact time 48 hr) was 533 ppm.
With `CCCCCCCCn1sc(Cl)c(Cl)c1=O` [DCOIT, 4,5-dichloro-2-n-octyl-4-isothiazolin-3-one] the MIC ([2]; ATCC13583, K. pneumoniae, contact time 48 hr, ppm active ingredient) was 11 µg/mL, the MIC ([3]; contact time 24 hr) was 6 µg/mL and the MIC ([3]; contact time 48 hr) was 9 µg/mL. For the same molecule, the MIC ([7]; ATCC58929, 72 h, F. moniliforme, contact time 3 days, ppm active ingredient) was 0.28 µg/mL, the MIC ([7]; ATCC58929, 168 h, F. moniliforme, contact time 7 days, ppm active ingredient) was 1 µg/mL and the MIC ([8]; Proteus mirabilis, read-out: Alone ppm (MIC of compound acting alone)) was 5 µg/mL.
`Cn1sccc1=O` [MI, 2-methyl-4-isothiazolin-3-one] gave an MIC ([1]; ATCC15442, 24 h) of 20 µg/mL, an MIC ([1]; ATCC15442, 48 h) of 25 µg/mL and an MIC ([2]; ATCC13583, 24 h) of 25 µg/mL. The MIC ([4]; Candida albicans, ATCC10231, 168 h, read-out: Alone ppm (MIC of compound acting alone)) was 25 µg/mL, the MIC ([5]; 72 h) was 107 µg/mL and the MIC ([5]; 168 h) was 133 µg/mL. The MIC ([6]; Aspergillus niger, ATCC16404, 168 h, read-out: Alone ppm (MIC of compound acting alone)) was 200 µg/mL, the MIC ([7]; ATCC58929, 72 h) was 200 µg/mL and the MIC ([7]; ATCC58929, 168 h) was 200 µg/mL.
